Assay type in all cases: cell-based, human
Experiment [1] relates to SASP factors. Kind of experiment: qPCR of SASP and PTGS mRNAs in non-senescent cells treated with eicosanoids. To be noted: 10 μM. As to the method:
RNA was extracted from cells or tissues using commercially available kits (Isolate II—Bioline for cells; Direct-zol—Zymo for tissues) according to the manufacturer's instructions. cDNA synthesis was performed using a High Capacity cDNA Reverse Transcription Kit (Thermo Fisher) according to the manufacturer's instructions. Quantitative PCR was performed on a LightCycler 480 II (Roche) using primers and probes designed for the Universal Probe Library. Primers and probes used for human transcripts were ACTB: 5′-CCAACCGCGAGAAGATGA (SEQ ID NO:1), 5′-TCCATCACGATGCCAGTG (SEQ ID NO:2), Probe #64; TUBA: 5′-cttcgtctccgccatcag (SEQ ID NO:3), 5′-ttgccaatctggacacca (SEQ ID NO:4), Probe #58; ALOX5: 5′-[…] (SEQ ID NO:5), 5′-[…] (SEQ ID NO:6), Probe #64; ALOX5AP: 5′-ggtctgcggggctacttt (SEQ ID NO:7), 5′-[…] (SEQ ID NO:8), Probe #18; ALOX12: 5′-[…] (SEQ ID NO:9), 5′-agccaggtcgtcaggag (SEQ ID NO:10), Probe #32; ALOX15: 5′-[…] (SEQ ID NO:11), 5′-[…] (SEQ ID NO:12), Probe #76; ALOX15B: 5′-[…] (SEQ ID NO:13), 5′-actgggaggcgaagaagg (SEQ ID NO:14), Probe #51; AKR1C1: 5′-catgcctgtcctgggattt (SEQ ID NO:15), 5′-[…] (SEQ ID NO:16), Probe #49; AKR1C2: 5′-ctatgcgcctgcagaggt (SEQ ID NO:17), 5′-[…] (SEQ ID NO:18), Probe #31; AKR1C3: 5′-[…] (SEQ ID NO:19), 5′-[…] (SEQ ID NO:20), Probe #78; CYSLTR2: 5′-[…] (SEQ ID NO:21), 5′-[…] (SEQ ID NO:22), Probe #18; DPEP1: 5′-gacgtcctgaggctggtg (SEQ ID NO:23), 5′-[…] (SEQ ID NO:24), Probe #9 (SEQ ID NO:25), ELOVL2: 5′-[…] (SEQ ID NO:26), 5′-[…] (SEQ ID NO:27), Probe #53; ELOVL4: 5′-catttggcccatggattc (SEQ ID NO:28), 5′-[…] (SEQ ID NO:29), Probe #31; ELOVL5: 5′-cccttccatgcgtccata (SEQ ID NO:30), 5′-[…] (SEQ ID NO:31), Probe #31; EPHX2: 5′-ttctgctggacaccctgaa (SEQ ID NO:32), 5′-[…] (SEQ ID NO:33), Probe #45; GPX4: 5′-ttcccgtgtaaccagttcg (SEQ ID NO:34), 5′-[…] (SEQ ID NO:35), Probe #36; LTA4H: 5′-ctgctctcacggtccagtc (SEQ ID NO:36), 5′-[…] (SEQ ID NO:37), Probe #64; LTBR2: 5′-[…] (SEQ ID NO:38), 5′-[…] (SEQ ID NO:39), Probe #33; LTC4S: 5′-[…] (SEQ ID NO:40), 5′-[…] (SEQ ID NO:41), Probe #18; PTGDS: 5′-[…] (SEQ ID NO:42), 5′-[…] […]

Experiment [2] concerns IMR-90 fibroblasts. Kind of experiment: Induction of senescence in non-senescent cells by prostaglandins or 5-LOX pathway products (EdU, SA-B-gal, p21, immunoblot). As to the method:
RNA was extracted from cells or tissues using commercially available kits (Isolate II—Bioline for cells; Direct-zol—Zymo for tissues) according to the manufacturer's instructions. cDNA synthesis was performed using a High Capacity cDNA Reverse Transcription Kit (Thermo Fisher) according to the manufacturer's instructions. Quantitative PCR was performed on a LightCycler 480 II (Roche) using primers and probes designed for the Universal Probe Library. Primers and probes used for human transcripts were ACTB: 5′-CCAACCGCGAGAAGATGA (SEQ ID NO:1), 5′-TCCATCACGATGCCAGTG (SEQ ID NO:2), Probe #64; TUBA: 5′-cttcgtctccgccatcag (SEQ ID NO:3), 5′-ttgccaatctggacacca (SEQ ID NO:4), Probe #58; ALOX5: 5′-[…] (SEQ ID NO:5), 5′-[…] (SEQ ID NO:6), Probe #64; ALOX5AP: 5′-ggtctgcggggctacttt (SEQ ID NO:7), 5′-[…] (SEQ ID NO:8), Probe #18; ALOX12: 5′-[…] (SEQ ID NO:9), 5′-agccaggtcgtcaggag (SEQ ID NO:10), Probe #32; ALOX15: 5′-[…] (SEQ ID NO:11), 5′-[…] (SEQ ID NO:12), Probe #76; ALOX15B: 5′-[…] (SEQ ID NO:13), 5′-actgggaggcgaagaagg (SEQ ID NO:14), Probe #51; AKR1C1: 5′-catgcctgtcctgggattt (SEQ ID NO:15), 5′-[…] (SEQ ID NO:16), Probe #49; AKR1C2: 5′-ctatgcgcctgcagaggt (SEQ ID NO:17), 5′-[…] (SEQ ID NO:18), Probe #31; AKR1C3: 5′-[…] (SEQ ID NO:19), 5′-[…] (SEQ ID NO:20), Probe #78; CYSLTR2: 5′-[…] (SEQ ID NO:21), 5′-[…] (SEQ ID NO:22), Probe #18; DPEP1: 5′-gacgtcctgaggctggtg (SEQ ID NO:23), 5′-[…] (SEQ ID NO:24), Probe #9 (SEQ ID NO:25), ELOVL2: 5′-[…] (SEQ ID NO:26), 5′-[…] (SEQ ID NO:27), Probe #53; ELOVL4: 5′-catttggcccatggattc (SEQ ID NO:28), 5′-[…] (SEQ ID NO:29), Probe #31; ELOVL5: 5′-cccttccatgcgtccata (SEQ ID NO:30), 5′-[…] (SEQ ID NO:31), Probe #31; EPHX2: 5′-ttctgctggacaccctgaa (SEQ ID NO:32), 5′-[…] (SEQ ID NO:33), Probe #45; GPX4: 5′-ttcccgtgtaaccagttcg (SEQ ID NO:34), 5′-[…] (SEQ ID NO:35), Probe #36; LTA4H: 5′-ctgctctcacggtccagtc (SEQ ID NO:36), 5′-[…] (SEQ ID NO:37), Probe #64; LTBR2: 5′-[…] (SEQ ID NO:38), 5′-[…] (SEQ ID NO:39), Probe #33; LTC4S: 5′-[…] (SEQ ID NO:40), 5′-[…] (SEQ ID NO:41), Probe #18; PTGDS: 5′-[…] (SEQ ID NO:42), 5′-[…] (SEQ ID NO:43), Probe #36; PTGES: 5′-agagatgcctgcccacag (SEQ ID NO:44), 5′-tggccaccacgtacatctt (SEQ ID NO:45), Probe #4; PTGES2: 5′-[…] (SEQ ID NO:46), 5′-[…] (SEQ ID NO:47), Probe #49; PTGES3 (SEQ ID NO:48), 5′-[…] (SEQ ID NO:49), 5′-[…] (SEQ ID NO:50), Probe #48; PTGIS: 5′-[…] (SEQ ID NO:51), 5′-[…] (SEQ ID NO:52), Probe #45; PTGR1: 5′-atgatggggcagcaagtg (SEQ ID NO:53), 5′-cccatcagaaatggagtgc (SEQ ID NO:54), Probe #64; PTGS1: 5′-[…] (SEQ ID NO:55), 5′-gtggtggtccatgttcctg (SEQ ID NO:56), Probe #81; PTGS2: 5′-gatccccagggctcaaac (SEQ ID NO:57), 5′-[…] (SEQ ID NO:58), Probe #61; TBXAS1: 5′-[…] (SEQ ID NO:59), 5′-tgcctcccgtgtgaatct (SEQ ID NO:60), Probe #73; AREG: 5′-[…] (SEQ ID NO:61), 5′-[…] (SEQ ID NO:62), Probe #73; CCL2: 5′-AGTCTCTGCCGCCCTTCT (SEQ ID NO:63), 5′-GTGACTGGGGCATTGATTG (SEQ ID NO:64), Probe #40; CCL27: 5′-[…] (SEQ ID NO:65), 5′-gctgggtggcagtaggaat (SEQ ID NO:66), Probe #18; CXCL1: 5′-[…] (SEQ ID NO:67), 5′-[…] (SEQ ID NO:68), Probe #52; HGF: 5′-[…] (SEQ ID NO:69), 5′-[…] (SEQ ID NO:70), Probe #49; ILIA: 5′-[…] (SEQ ID NO:71), 5′-[…] (SEQ ID NO:72), Probe #6; IL1B: 5′-[…] (SEQ ID NO:73), 5′-[…] (SEQ ID NO:74), Probe #78; IL6: 5′-[…] (SEQ ID NO:75), 5′-gaaggcagcaggcaacac (SEQ ID NO:76), Probe #45; IL8: 5′-[…] (SEQ ID NO:77), 5′-atggttccttccggtggt (SEQ ID NO:78), Probe #72; IL10: 5′-[…] (SEQ ID NO:79), 5′-[…] (SEQ ID NO:80), Probe #67; MMP3: 5′-[…] (SEQ ID NO:81), 5′-[…] (SEQ ID NO:82), Probe #36; PDGFA: 5′-[…] (SEQ ID NO:83), 5′-[…] (SEQ ID NO:84), Probe #80; VEGF: 5′-[…] (SEQ ID NO:85), 5′-[…] (SEQ ID NO:86), Probe #50; P21WAF1(CDKN1A): 5′-[…]
(A western blot detects proteins with antibodies after separation by electrophoresis.)

For experiment [3], the system named is IL-6 secretion. Kind of experiment: IL-6 ELISA on non-senescent cells treated with prostaglandins. To be noted: 10 μM, 10 days. As to the method: Human fetal lung fibroblasts (IMR-90) were cultured in Dulbecco's modified eagle medium (DMEM) supplemented with 10% FBS and penicillin/streptomycin. LL 29 (AnHa) cells were obtained from the ATCC and growth to confluence using the ATCC protocol, but were subcultured as described for IMR-90 before initiation of all experiments. Quiescence was induced by replacing culture media with media containing 0.2% FBS. MCF-7 and MDA-MB-231 breast cancer cells were cultured in RPMI supplemented with 10% FBS and penicillin/streptomycin. All cells were cultured at 3% O2, and used between 25 and 40 population doublings. All cells were mycoplasma free.
3×10^4 cells in 12-well plates were treated as indicated in the text, and cultured in 0.5-1 ml serum-free DMEM for 24 hr. CM were collected and clarified at 2,000×g for 10 min. Supernatants were transferred to a tube; cells were trypsinized and counted. CM (2.5 μl) were analyzed by bead-based ELISAs (AlphaLISA, Perkin-Elmer) as instructed by the manufacturer and normalized to cell number.

Experiment [4] deals with IMR-90 fibroblasts depleted of p53 by shRNA. Kind of experiment: Prostaglandin treatment of p53-depleted (shp53) IMR-90 fibroblasts (Ki67, cleaved caspase 3). The settings on record: shp53 cells, 3 days. As to the method: For EdU labeling, cells were cultured with EdU (10 μM) for 24 h, fixed in 4% buffered formalin for 10 min, washed in PBS, and permeabilized in 0.5% Triton X-100 for 30 min. Cells were treated as instructed by the manufacturer Life Technologies Cat #C10337). For immunofluorescence, cells were blocked in 10% normal goat serum for 30 min, washed, and incubated overnight in antibodies to Ki67 (Abcam) or cleaved caspase 3 (Cell Signaling). Cell were then washed, incubated in fluorescent secondary antibodies, and mounted using vectashield mounting medium with DAPI.

Data on two compounds can be found in patent publication US20200371122A1, “BIOMARKER FOR SENESCENT CELLS” (Buck Institute for Research on Aging, priority 2017, published 2020).

The structures appear in SMILES notation.

For `CCCCC[C@H](O)/C=C/[C@H]1[C@H](O)CC(=O)[C@@H]1C/C=C\CCCC(=O)O` [PGE2, prostaglandin E2], the “PTGES mRNA” value in experiment [1] is reported as “elevated”. In addition, the “cell size and proliferation once prostaglandin was removed” value in experiment [2] (10 μM 7 days, then 10 days release) was “became smaller and resumed proliferation”. For the same compound, the senescence-associated beta-galactosidase result in experiment [2] (10 μM, 10 days) is “induced”.

On to `CCCCC[C@H](O)/C=C/[C@H]1C(=O)C=C[C@@H]1C/C=C\CCCC(=O)O` [PGJ2], for which the “SASP factor mRNAs” value in experiment [1] (for PGJ2 and 15d-PGJ2 most factors except VEGF and PDGF) is recorded as “strongly induced”. Also, the IL-6 secretion entry in experiment [3] is listed as “highest induction”. In experiment [2] (10 μM, 10 days), the “levels of LMNB1 and cellular HMGB1” value is on record as “reduced levels”; the p21 gene expression entry was “induced”; the senescence-associated beta-galactosidase result is “induced”. Further, in experiment [2] (10 μM, 10 days, immunoblot), the p21 protein accumulation result is reported as “induced” and the p53 stabilization result is “stabilized”. In experiment [2] (10 μM, 10 days, western blot), the “p53 phosphorylation or acetylation” value is on record as “without increasing”. For the same compound, the “expression of MMP3 and secretion of IL-6 on removal of the prostaglandin” value in experiment [2] (release after 7 days at 10 μM) is “reduced”. In experiment [4], the “apoptosis (positivity for cleaved caspase 3)” value is “underwent apoptosis” and the “continued cell division (Ki67 positivity) after loss of p53” value is “did not allow”.
